This note sets out measurements from patent publication US9414998B2, “Preventing or ameliorating agent for pigmentation” (Pola Chemical Industries Inc., priority 2009, dated 2016).

In the first assay the test system is normal human melanocyte. Briefly: Ultraviolet B (UVB)-induced activation inhibition test using normal human melanocyte (MTT, supernatant of UVB-irradiated keratinocytes). The class given is cell-based. Conditions: light or radiation study, UVB 5 mJ/cm^2, compound 100 mM in DMSO diluted 1,000 times, formazan production ratio, DMSO negative control irradiated with UVB = 100, average of three measurements, read-out: Melanocyte proliferation ratio Average (%). How it is done: The suppressing effect of each of the compounds, which was exerted on the activation of melanocyte by the melanocyte activating factor produced and released from normal human keratinocyte by the ultraviolet B (UVB), was investigated by using the index of the cell proliferation function of normal human melanocyte.
Normal human keratinocyte cells (Kurabo Industries, Ltd.) were seeded by using Humedia-KG2 medium (Kurabo Industries, Ltd.) at a concentration of 10×10^4 cells/well in 24-well plate, followed by being cultured for 24 hours.
The compound to be evaluated was dissolved at a concentration of 100 mM in DMSO, which was diluted 1,000 times with Humedia-KG2 medium and used as a sample solution. As for the positive control group, tranexamic acid was dissolved at a concentration of 100 mM in DMSO, which was diluted 1,000 times with Humedia-KG2 medium and used as a positive control sample solution. As for the negative control group, DMSO was diluted 1,000 times with Humedia-KG2 medium, which was used as a negative control sample solution. A concentration, at which the cell proliferation of normal human melanocyte was not affected, was set for each of the compounds.
The medium of normal human keratinocyte was exchanged with Humedia-KG2 medium (sample solution) containing the compound at a predetermined concentration, and the cells were cultured for further 24 hours. After that, the medium was exchanged with PBS (phosphate buffered saline), and cells were irradiated with the ultraviolet B (UVB) at 5 mJ/cm^2 by using an ultraviolet lamp (FL20S•E-30/DMR, Toshiba Medical Supply Co., Ltd.) as a light source. After the ultraviolet radiation, PBS was exchanged with the sample solution. Cells were cultured for further 24 hours, and then the culture supernatant was collected.
Normal human melanocyte cells were seeded to 96-well plate by using a medium of Medium 254 (Kurabo Industries, Ltd.) so that the concentration was 3×10^4 cells/well, and the cultivation was performed for 24 hours. After that, the medium was exchanged with the culture supernatant collected from normal human keratinocyte, and the cells were cultured for further 24 hours. After the cultivation for 24 hours, the medium was exchanged with Humedia-KG2 medium containing 0.5 mg/mL of 3-(4,5-dimethyl-2-thiazoyl)-2,5-diphenyl-2H-tetrazolium bromide (MTT), and the cultivation was performed for 3 hours.
The formazan amount was determined by measuring the absorbances at 570 nm and 690 nm of cell lysate prepared with 2-propanol by means of a microplate reader (Benchmark Plus, Bio-Rad) and subtracting the absorbance at 690 nm from the absorbance at 570 nm.
The suppressing effect of each of the compounds on the melanocyte proliferation was represented by the percentage (%) as the formazan production ratio while the absorbance of the DMSO added group (negative control group) irradiated with the ultraviolet B (UVB) was assumed as 100.
It can be judged that the lower the production ratio of formazan is, the lower the melanocyte proliferation ratio is. Therefore, when the production ratio of formazan is lower, it is possible to judge that the suppressing activity of the compound to be evaluated is high with respect to the activation of melanocyte by the melanocyte activating factor produced and released by normal human keratinocyte.
On to `Cc1ccc(C(=O)NC(CO)C(=O)O)cc1` (racemic) [Compound 3, N-(p-methylbenzoyl)serine], for which the activity at 100 µM turned out to be 61.6%. Same read-out and setting: with `COCC(NC(=O)c1ccc(C)cc1)C(=O)O` (racemic) [Compound 9, N-(p-methylbenzoyl)-O-methylserine] the figure was 62.3%; with `COCC(NC(=O)c1ccc2ccccc2c1)C(=O)O` (racemic) [Compound 13, N-(2-naphthoyl)-O-methylserine], 80.3%; with `COCC(NC(=O)c1ccccc1)C(=O)O` (racemic) [Compound 16, N-benzoyl-O-methylserine], 65.5%. Same read-out and setting: the value for `Cc1ccc(C(=O)N[C@@H](CO)C(=O)O)cc1` [Compound 1, N-(p-methylbenzoyl)-L-serine] was 57%. On the same count and under the same terms, with `O=C(N[C@@H](CO)C(=O)O)c1ccccc1` [Compound 2, N-benzoyl-serine] the figure was 60.9%; with `O=C(N[C@@H](CO)C(=O)O)c1ccc(F)cc1` [Compound 4, N-(p-fluorobenzoyl)serine], 55.3%; with `COc1ccc(C(=O)N[C@@H](CO)C(=O)O)cc1` [Compound 5, N-(p-methoxybenzoyl)serine], 63.4%.

As for `CCc1ccc(C(=O)N[C@@H](CO)C(=O)O)cc1` [Compound 7, N-(p-ethylbenzoyl)serine], the activity at 100 µM was determined as 65.1%. On the same count and under the same terms, with `O=C(N[C@@H](CO)C(=O)O)c1ccc(C(F)(F)F)cc1` [Compound 8, N-(p-trifluoromethylbenzoyl)serine] the figure was 53.9%; with `O=C(N[C@@H](CO)C(=O)O)c1ccc2ccccc2c1` [Compound 10, N-(2-naphthoyl)serine], 82.4%. Same read-out and setting: with `CC(=O)OC[C@H](NC(=O)c1ccc(C)cc1)C(=O)O` [Compound 11, N-(p-methylbenzoyl)-O-acetylserine] the figure was 71.8%; with `COC(=O)[C@H](CO)NC(=O)c1ccc2ccccc2c1` [Compound 12, N-(2-naphthoyl)serine methyl ester], 83.1%; with `O=C(N[C@@H](CO)C(=O)O)c1ccc(-c2ccccc2)cc1` [Compound 14, N-(4-phenylbenzoyl)serine], 75%. Still for that read-out and setting: the value for `Cc1ccc(C(=O)NC(CO)C(=O)O)cc1` (stereo not drawn) [Compound 15, N-(p-methylbenzoyl)serine] was 60.2%. For `CCOC(=O)[C@H](CO)NC(=O)c1ccc(C)cc1` [Compound 17, N-(p-methylbenzoyl)serine ethyl ester], the activity at 100 µM turned out to be 73.6%. On the same count and under the same terms, the value for `NC[C@H]1CC[C@H](C(=O)O)CC1` [Tranexamic acid, tranexamic acid, reference compound] was 82%.

The test system of the next assay is pigmented guinea pigs. Nature of the assay: Ultraviolet ray-induced pigmentation inhibition test using pigmented guinea pigs. In kind it is in vivo, guinea pig. The conditions noted are these: 3% (w/v) in ethanol, 30 μL once a day for 5 weeks; L* on 36th day minus L* before ultraviolet radiation; average ± standard deviation of 8 samples; solvent control −11.83 ± 0.78. The source says: Skins of backs of eight pigmented guinea pigs were subjected to the hair removal and the hair shaving with electric hair clippers and shaver, and these sites were covered with black cloths each having four radiation windows of 2×2 cm in total disposed at two upper left and right positions and two lower left and right positions respectively. After that, the ultraviolet ray was radiated at 300 mJ/cm^2 by using FL20S•E30 lamp as the light source. This operation was repeatedly performed on 1st, 3rd, 5th, and 8th days of the test to induce the pigmentation at the four test sites. The compound to be evaluated (Compound 1) was dissolved and prepared in ethanol so that the concentration was 3% (w/v). Ethanol was applied as the solvent control group. The application of each of the compounds to be evaluated was started from the time of completion of the ultraviolet radiation on the 1st day of the test. Each of the compounds to be evaluated was applied in an amount of 30 μL once a day to the predetermined test sites, and this procedure was continuously carried out for 5 weeks (until 35th day of the test). […]
Consider `Cc1ccc(C(=O)N[C@@H](CO)C(=O)O)cc1` [Compound 1, N-(p-methylbenzoyl)-L-serine], for which the “ΔL* value” is −9.98 ± 0.71.
